Laboratory results as given in the supplement of paper PMC3974653.
Where a name gives a salt, the structure may show the parent alone.

Test system: MTT (mouse pheochromocytoma)
Assay: IC50 of cell viability (ATP content)
Settings: (24 or 48 h)
Summary of the method: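 MTT mouse pheochromocytoma cells (5 µl of 200,000 cells/ml per well, white 1536-well plates, DMEM with 5% FBS and 1% horse serum) were cultured overnight at 37°C, 5% CO2. They then received 23 nl library compound in DMSO by pintool at 8 concentrations (final 0.5 nM to 46 µM) for 24 or 48 hrs. CellTiter-Glo ATP luminescence was read after 15 minutes. Signals were normalised to positive-control (100% inhibition) and DMSO (0%) wells, and IC50 came from a four-parameter logistic fit.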

Structure (SMILES)	IC50 of cell viability
CCCCCCCCCCCCCCCCCCCCCC(=O)Nc1ccn([C@@H]2O[C@H](CO)[C@@H](O)[C@@H]2O)c(=O)n1 [ENOCITABINE]	> 46 µM
CC1(C)[C@@H](O)CC[C@@]2(C)[C@H]1CC[C@]3(C)[C@@H]2C(=O)\C=C/4[C@@H]5C[C@](C)(CC[C@]5(C)CC[C@@]34C)C(O)=O [ENOXOLONE]	> 46 µM
CCN1CCN(CC1)C2=CC3=C(C=C2F)C(=O)C(=C/N3C4CC4)\C(O)=O [ENROFLOXACIN]	> 46 µM
C=C1C(n2cnc3c(O)nc(N)nc32)C[C@H](O)[C@H]1CO (some centres not stated) [ENTECAVIR]	> 46 µM
Cc1ccc(/C=C2/C(=O)C3(C)CCC2C3(C)C)cc1 (configuration not stated) [ENZACAMENE]	> 46 µM
O=C([O-])c1ccccc1-c1c2cc(Br)c(=O)c(Br)c-2oc2c(Br)c([O-])c(Br)cc12 [EOSINE YELLOWISH]	> 46 µM
CCc1ccc(C(=O)C(C)CN2CCCCC2)cc1 (configuration not stated) [EPERISONE HYDROCHLORIDE]	> 46 µM
CNC(C)[C@@H](O)c1ccccc1.Cl (stereo partly drawn) [EPHEDRINE (1R,2S) HYDROCHLORIDE]	> 46 µM
Oc1cc(O)c2c(c1)OC(c1ccc(O)c(O)c1)C(O)C2 (configuration not stated) [EPICATECHIN]	> 46 µM
CC(C)CCC[C@@H](C)[C@H]1CC[C@H]2[C@@H]3CC[C@@H]4C[C@H](O)CC[C@]4(C)[C@H]3CC[C@]12C [EPIDIHYDROCHOLESTERIN]	> 46 µM
NC1=NCC2c3ccccc3Cc3ccccc3N12 (configuration not stated) [EPINASTINE HYDROCHLORIDE]	> 46 µM
CNC[C@H](O)c1ccc(O)c(O)c1 [EPINEPHRINE]	> 46 µM
CCCCC[C@H](O)/C=C/[C@@H]1[C@H]2C/C(=C/CCCC(=O)[O-])O[C@H]2C[C@H]1O [EPOPROSTENOL SODIUM]	> 46 µM
C/C(=C\c1csc(C)n1)[C@@H]1C[C@@H]2O[C@]2(C)CCC[C@H](C)[C@H](O)[C@@H](C)C(=O)C(C)(C)[C@@H](O)CC(=O)O1 [EPOTHILONE B]	> 46 µM
CCOC(CN1CCN(CC(C)C(=O)c2ccccc2)CC1)c1ccccc1 (configuration not stated) [EPRAZINONE HYDROCHLORIDE]	> 46 µM
N=C(N)NCCCC[C@@H]1NC(=O)CCSSC[C@@H](C(N)=O)NC(=O)[C@@H]2CCCN2C(=O)[C@H](Cc2c[nH]c3ccccc23)NC(=O)[C@H](CC(=O)O)NC(=O)CNC1=O [EPTIFIBATIDE]	> 46 µM
C=C1CCC(O)C/C1=C/C=C1\CCC[C@]2(C)[C@@H]([C@H](C)/C=C/[C@H](C)C(C)C)CC[C@@H]12 (some centres not stated) [ERGOCALCIFEROL]	> 46 µM
CC(CO)NC(=O)C1C=C2c3cccc4[nH]cc(c34)CC2N(C)C1 (configuration not stated) [ERGONOVINE]	> 46 µM
CCC(=O)O[C@H]1C(O[C@@H]2C(C)[C@H](O[C@H]3C[C@@](C)(OC)C(O)C(C)O3)C(C)C(=O)OC(CC)[C@@](C)(O)C(O)[C@H](C)C(=O)C(C)C[C@]2(C)O)OC(C)CC1N(C)C.CCCCCCCCCCCCO[S+](=O)([O-])O (some centres not stated) [ERYTHROMYCIN ESTOLATE]	> 46 µM
CCC1OC(=O)C(C)[C@@H](O[C@H]2C[C@@](C)(OC)C(O)C(C)O2)C(C)[C@@H](O[C@@H]2OC(C)CC(N(C)C)C2O)[C@@](C)(O)CC(C)C(=O)[C@@H](C)C(O)[C@]1(C)O (some centres not stated) [ERYTHROMYCIN]	> 46 µM
CN(C)CCC[C@@]1(c2ccc(F)cc2)OCc2cc(C#N)ccc21.O=C(O)C(=O)O [ESCITALOPRAM OXALATE]	> 46 µM
CNC1(c2ccccc2Cl)CCCCC1=O (configuration not stated) [ESKETAMINUM]	> 46 µM
CC(=O)SCC(CC(=O)c1ccc(C)cc1)C(=O)O (configuration not stated) [ESONARIMOD]	> 46 µM

Structure (SMILES)	IC50 of cell viability
ClC1=CC=C2[N]3C=NN=C3C\N=C(\C4=CC=CC=C4)C2=C1 [ESTAZOLAM]	> 46 µM
CC(=O)OC1CCC2C3CCc4cc(O)ccc4C3CCC12C (configuration not stated) [ESTRADIOL ACETATE]	> 46 µM
C[C@]12CC[C@@H]3c4ccc(OC(=O)c5ccccc5)cc4CC[C@H]3[C@@H]1CC[C@@H]2O [ESTRADIOL BENZOATE]	> 46 µM
C[C@]12CC[C@@H]3c4ccc(O)cc4CC[C@H]3[C@@H]1CCC2OC(=O)CCC1CCCC1 (some centres not stated) [ESTRADIOL CYPIONATE]	> 46 µM
CCCCC(=O)OC1CCC2C3CCc4cc(O)ccc4C3CC[C@]12C (some centres not stated) [ESTRADIOL VALERATE]	> 46 µM
C[C@]12CC[C@@H]3c4ccc(OC(=O)N(CCCl)CCCl)cc4CC[C@@H]3[C@H]1CC[C@@H]2OP(=O)(O)O [ESTRAMUSTINE PHOSPHATE]	> 46 µM
CCCCCCCCCCCCCCCCCCOC[C@H](COP(=O)([O-])OCC[N+](C)(C)C)OC [ET-18-OCH3]	> 46 µM
CCN(CC)CCOc1ccccc1C(=O)CCc1ccccc1 [ETAFENONE HYDROCHLORIDE]	> 46 µM
O=C(Cn1ccnc1[N+](=O)[O-])NCCO [ETANIDAZOLE]	> 46 µM
CCC1(c2ccccc2)C(=O)N(COC)C(=O)N(COC)C1=O [ETEROBARBUM]	> 46 µM
C#C[C@]1(O)CC[C@H]2[C@@H]3CCc4cc(O)ccc4[C@H]3CC[C@@]21C [ETHINYL ESTRADIOL]	> 46 µM
CC\12CCC(=O)\C=C1CCC3C2CCC4(C)C3CCC4(O)C#C (configuration not stated) [ETHISTERONE]	> 46 µM
C#C[C@]1(O)CC[C@H]2[C@@H]3CCC4=CC(=O)CCC4(C)[C@H]3CCC21C (some centres not stated) [ETHISTERONUM]	> 46 µM
CCOc1ccc2nc([S+](N)(=O)[O-])sc2c1 [ETHOXZOLAMIDE]	> 46 µM
CCCCC/C=C/C/C=C/CCCCCCCC(=O)OCC [ETHYL LINOLEATE]	> 46 µM
CCOC(=O)c1cccnc1 [ETHYL NICOTINATE]	> 46 µM
CCOC(=O)c1ccccc1O [ETHYL SALICYLATE]	> 46 µM
CCOC1=C2O[C@H]3[C@@H](O)\C=C/[C@H]4[C@H]5CC(=C2[C@@]34CCN5C)C=C1 [ETHYLMORPHINE HYDROCHLORIDE]	> 46 µM
CCC(C(=O)NC(N)=O)c1ccccc1 (configuration not stated) [ETHYLPHENACEMIDE]	> 46 µM
C#C[C@]1(OC(C)=O)CC[C@H]2[C@@H]3CCC4=C[C@@H](OC(C)=O)CC[C@@H]4[C@H]3CC[C@@]21C [ETHYNODIOL DIACETATE]	> 46 µM
CC(O)(P(=O)(O)O)P(=O)(O)O [ETIDRONATE DISODIUM]	> 46 µM
CCc1cc2c(s1)-n1c(C)nnc1CN=C2c1ccccc1Cl [ETIZOLAM]	> 46 µM
CC[C@]12CC(=C)[C@H]3[C@@H](CCC/4=C/C(=O)CC[C@H]34)[C@@H]1CC[C@@]2(O)C#C [ETONOGESTREL]	> 46 µM

Structure (SMILES)	IC50 of cell viability
Cc1ccc(-c2ncc(Cl)cc2-c2ccc(S(C)(=O)=O)cc2)cn1 [ETORICOXIB]	> 46 µM
CCOC(=O)/C=C(C)/C=C/C=C(C)/C=C/c1c(C)cc(OC)c(C)c1C [ETRETINATE]	> 46 µM
CCC(N)Cc1c[nH]c2ccccc12 (configuration not stated) [ETRYPTAMINUM]	> 46 µM
CO[C@H]1C[C@@H]2CC[C@@H](C)[C@@](O)(O2)C(=O)C(=O)N2CCCC[C@H]2C(=O)O[C@H]([C@H](C)C[C@@H]2CC[C@@H](OCCO)[C@H](OC)C2)CC(=O)[C@H](C)C=C(C)[C@@H](O)[C@@H](OC)C(=O)[C@H](C)C[C@H](C)/C=C/C=C/C=C1C [EVEROLIMUS]	> 46 µM
CCCCCCOc1ccccc1C(N)=O [EXALAMIDE]	> 46 µM
C[C@]12CCC3C(CC(=C)C\4=C\C(=O)\C=C/[C@@]34C)C1CCC2=O (some centres not stated) [EXEMESTANE]	> 46 µM
O=C1C(CCC(O)c2ccc(F)cc2)C(c2ccc(O)cc2)N1c1ccc(F)cc1 (configuration not stated) [EZETIMIBE]	> 46 µM
O=c1c2ccccc2[se]n1-c1ccccc1 [Ebselen]	> 46 µM
CC[C@@]12CCCN3CCc4c(n(c5ccccc45)C(=O)C1)[C@H]32 [Eburnamonine (-)]	> 46 µM
CC[N+](C)(C)c1cccc(O)c1 [Edrophonium chloride]	> 46 µM
CCOC(=O)COc1ccc2c(=O)cc(-c3ccccc3)oc2c1 [Efloxate]	> 46 µM
CC1=C(C(=O)OCCN(Cc2ccccc2)c2ccccc2)C(c2cccc([N+](=O)[O-])c2)C(P2(=O)OCC(C)(C)CO2)=C(C)N1 (configuration not stated) [Efonidipine]	> 46 µM
OC(CN1CCC(Cc2ccc(F)cc2)CC1)c1ccc(Cl)cc1 (configuration not stated) [Eliprodil]	> 46 µM
CC(NC(CCc1ccccc1)C(=O)O)C(=O)N1CCCC1C(=O)O (configuration not stated) [Enalapril acid]	> 46 µM
CCOC(=O)[C@H](CCc1ccccc1)N[C@@H](C)C(=O)N1CCC[C@H]1C(=O)O [Enalaprila]	> 46 µM
COc1ccc(C(=O)Nc2ccccc2CCC2CCCCN2C)cc1 (configuration not stated) [Encainide hydrochloride]	> 46 µM
CCN(CC)CCOc1ccc(/C(=C(/Cl)c2ccccc2)c2ccccc2)cc1 [Enclomifene]	> 46 µM
CCN1\C=C(\C(O)=O)C(=O)C2=C1N=C(N3CCNCC3)C(=C2)F [Enoxacin]	> 46 µM
CSC1=CC=C(C=C1)C(=O)\C2=C(/C)NC(=O)N2 [Enoximone]	> 46 µM
CCN(CC)C(=O)/C(C#N)=C/c1cc(O)c(O)c([N+](=O)[O-])c1 [Entacapone]	> 46 µM
CN1C=C(C2=CC=CC=C12)C3=C(/C(=O)NC\3=O)C4=CN(C5CCN(CC6=NC=CC=C6)CC5)C7=C4C=CC=C7 [Enzastaurin]	> 46 µM
